In the supplement of paper PMC10307832:

Experiments:
Assay in all cases: relative viability (nuclei count vs DMSO), 5 days (fraction); higher = more cells survive
[1] = compound: COc1cc2nc(N3CCCN(C)CC3)nc(NC3CCN(Cc4ccccc4)CC3)c2cc1OC + CC(C)C[C@H](NC(=O)[C@H](Cc1ccccc1)NC(=O)c1cnccn1)B(O)O [Bortezomib] (partner 0.002 µM)
Method in brief: (§1)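 Relative viability divides the nuclei count in treated wells by that in vehicle wells. Lung cancer cell lines were seeded in 1536-well plates, dosed by pin tool the next day, and fixed and stained after 5 days in one step with final 0.05% Triton X-100, 1% formaldehyde and 1 ug/ml Hoechst. Dosing was a single drug or a fixed anchor-drug dose plus five library-drug doses (not always all listed) in √10 steps, and values are medians of duplicate plates imaged at 4×.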

AZD6482 + Trametinib = compound: Cc1cc([C@@H](C)Nc2ccccc2C(=O)O)c2nc(N3CCOCC3)cc(=O)n2c1 [AZD6482] + CC(=O)Nc1cccc(-n2c(=O)n(C3CC3)c(=O)c3c(Nc4ccc(I)cc4F)n(C)c(=O)c(C)c32)c1 [Trametinib] (partner 0.02 µM)
Method in brief: as §1

AZD6482 + Foretinib = compound: Cc1cc([C@@H](C)Nc2ccccc2C(=O)O)c2nc(N3CCOCC3)cc(=O)n2c1 [AZD6482] + COc1cc2c(Oc3ccc(NC(=O)C4(C(=O)Nc5ccc(F)cc5)CC4)cc3F)ccnc2cc1OCCCN1CCOCC1 [Foretinib] (partner 0.25 µM)
Method in brief: as §1

[2] = compound: COc1cc2nc(N3CCCN(C)CC3)nc(NC3CCN(Cc4ccccc4)CC3)c2cc1OC + Cc1nc(Nc2ncc(C(=O)Nc3c(C)cccc3Cl)s2)cc(N2CCN(CCO)CC2)n1 [Dasatinib] (partner 0.075 µM)
Method in brief: as §1

Row | Cell Line | relative viability ([1]; first compound 0.2 µM) | relative viability ([1]; first compound 0.6325 µM) | relative viability ([1]; first compound 2 µM) | relative viability ([1]; first compound 6.325 µM) | relative viability (AZD6482 + Trametinib; first compound 0.08 µM) | relative viability (AZD6482 + Trametinib; first compound 0.253 µM) | relative viability (AZD6482 + Trametinib; first compound 0.8 µM) | relative viability (AZD6482 + Trametinib; first compound 2.53 µM) | relative viability (AZD6482 + Trametinib; first compound 8 µM) | relative viability (AZD6482 + Foretinib; first compound 0.08 µM) | relative viability (AZD6482 + Foretinib; first compound 0.253 µM) | relative viability (AZD6482 + Foretinib; first compound 0.8 µM) | relative viability (AZD6482 + Foretinib; first compound 2.53 µM) | relative viability (AZD6482 + Foretinib; first compound 8 µM) | relative viability ([2]; first compound 0.2 µM) | relative viability ([2]; first compound 0.6325 µM) | relative viability ([2]; first compound 2 µM) | relative viability ([2]; first compound 6.325 µM)
1 | NCI-H1975 | 0.371 | 0.376 | 0.346 | 0.413 | 0.287 | 0.32 | 0.307 | 0.278 | 0.39 | 0.889 | 0.872 | 0.951 | 0.709 | 0.558 | 0.342 | 0.438 | 0.464 | 0.287
2 | CAL-12T | 0.996 | 1.32 | 1.05 | 0.833 | 0.308 | 0.276 | 0.234 | 0.185 | 0.302 | 1.11 | 1.22 | 1.2 | 0.792 | 1 | 0.37 | 0.325 | 0.54 | 0.294
3 | NCI-H1623 |  |  |  |  |  |  |  |  |  | 0.778 | 0.888 | 0.923 | 0.703 | 0.682 | 0.517 | 0.604 | 0.507 | 0.524
4 | HCC-44 | 0.935 | 0.85 | 0.991 | 0.909 | 0.926 | 1.07 | 1.08 | 1.08 | 0.858 |  |  |  |  |  |  |  |  | 
5 | EKVX | 1.09 | 0.993 | 1.18 | 0.963 | 0.293 | 0.291 | 0.286 | 0.242 | 0.203 | 0.746 | 0.654 | 0.921 | 0.542 | 0.614 | 0.571 | 0.52 | 0.474 | 0.526
6 | NCI-H1651 | 0.884 | 0.939 | 1.03 | 0.934 | 0.767 | 0.7 | 0.835 | 0.691 | 0.68 | 0.624 | 0.699 | 0.736 | 0.566 | 0.636 | 0.383 | 0.523 | 0.47 | 0.413
7 | NCI-H1944 |  |  |  |  | 0.38 | 0.375 | 0.426 | 0.351 | 0.335 | 0.866 | 0.892 | 0.872 | 0.686 | 0.697 | 0.199 | 0.245 | 0.204 | 0.232
8 | NCI-H1703 | 0.37 | 0.379 | 0.316 | 0.203 |  |  |  |  |  | 0.266 | 0.414 | 0.322 | 0.259 | 0.259 |  |  |  | 
9 | Calu-6 | 0.976 | 0.942 | 1.03 | 0.948 |  |  |  |  |  | 0.789 | 0.815 | 0.9 | 0.644 | 0.765 |  |  |  | 
10 | EBC-1 | 0.469 | 0.476 | 0.437 | 0.265 |  |  |  |  |  | 0.102 | 0.104 | 0.124 | 0.0931 | 0.115 |  |  |  | 
11 | SW 1573 | 1.16 | 0.893 | 0.882 | 0.853 | 0.466 | 0.508 | 0.526 | 0.336 | 0.307 | 0.792 | 0.776 | 0.862 | 0.726 | 0.608 | 0.453 | 0.454 | 0.665 | 0.295
12 | A-427 | 0.962 | 0.869 | 1.09 | 0.957 | 0.628 | 0.783 | 0.691 | 0.548 | 0.612 | 0.959 | 0.937 | 1.13 |  | 1.05 | 0.64 | 0.707 | 0.749 | 0.651
13 | NCI-H2347 | 1.04 | 0.846 | 1.08 | 1.07 | 0.276 | 0.271 | 0.222 | 0.265 | 0.238 | 0.646 | 0.569 | 0.946 | 0.557 | 0.74 | 0.36 | 0.339 | 0.304 | 0.274
14 | NCI-H1355 | 1.23 | 1.21 | 1.29 | 1.1 | 0.345 | 0.374 | 0.37 | 0.339 | 0.305 | 0.769 | 0.812 | 0.962 | 0.713 | 0.641 | 0.761 | 0.777 | 0.787 | 0.783
15 | NCI-H358 |  |  |  |  | 0.133 | 0.131 | 0.12 | 0.117 | 0.113 | 0.484 | 0.706 | 0.679 | 0.407 | 0.489 | 0.163 | 0.205 | 0.146 | 0.171
16 | PC-3 [JPC-3] | 0.793 | 0.787 | 0.962 | 0.675 | 0.556 | 0.694 | 0.65 | 0.564 | 0.55 | 0.928 | 1.09 | 1.09 | 0.877 | 0.875 | 0.954 | 0.908 | 1.08 | 1
17 | NCI-H2228 | 0.91 | 0.841 | 1.47 | 0.519 | 0.342 | 0.579 | 0.457 | 0.484 | 0.494 |  | 0.791 | 0.862 | 0.694 | 0.649 | 0.514 | 0.488 | 0.496 | 0.243
18 | HOP-62 | 0.623 | 0.869 | 0.855 | 0.469 | 0.247 | 0.342 | 0.242 | 0.262 | 0.232 | 1.12 | 1.15 | 1.23 | 0.94 | 1.02 | 0.748 | 0.62 | 0.711 | 0.65
19 | HARA | 1.03 | 1.07 | 1.28 | 1.11 | 0.538 | 0.496 | 0.453 | 0.336 | 0.352 | 0.811 | 0.809 | 0.889 | 0.663 | 0.61 | 0.275 | 0.271 | 0.255 | 0.266
20 | NCI-H838 | 0.858 | 1.02 | 0.73 | 0.721 | 0.419 | 0.494 | 0.451 | 0.316 | 0.336 | 0.855 | 0.964 | 0.873 | 0.581 | 0.469 | 0.316 | 0.319 | 0.33 | 0.237
